Test results as given in PMC11992225, “Antibacterial compounds against non-growing and intracellular bacteria” (npj Antimicrobials and Resistance, 2025).
Values joined by “and” are separate entries in the source; they are usually repeats but may differ in a detail not shown here. Equal values may be shown once.

Tests used:
non-growing UPEC CFT073 = experiment: Dose-dependent killing analysis (CFU spot-plating) of stationary-phase UPEC; type: cell-based, Escherichia coli; conditions: for log10(CFU/ml) after treatment: individual replicates
How it was run: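 Killing assessed by CFU counts: overnight 37 °C LB agar spot plates (10 μl drops of 10-fold PBS dilutions) scored at the lowest dilution with distinct colonies. Samples were compound-treated non-growing UPEC CFT073, 200 μl per well. Performed as three biological replicates.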

[1] = tested on: non-growing S. aureus DSM2569; experiment: Dilution-regrowth assay (OD600, start-growth-time) on stationary-phase S. aureus; type: cell-based, Staphylococcus aureus; conditions: S. aureus; for Regrowth, OD600 at 6h or 8h after dilution into drug-free medium: average; for EC50: Staphylococcus aureus, DSM2569, regrowth delay of non-growing bacteria, 1:4 CA-MHB pH 7.4, 24 h treatment, OD600 8 h after dilution, read-out: EC50
How it was run: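 Non-growing S. aureus was tested in a dilution-regrowth format. Cells were cultured and treated for 24 h in 1:4 diluted CA-MHB, pH 7.4, then diluted into drug-free medium, and OD600 was measured every 20 min. Start-growth-time was the time OD600 passed 0.12. Dose-response curves were fitted with a five-parameter logistic equation to derive EC50.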

[2] = tested on: non-growing P. aeruginosa DSM1117; experiment: Dilution-regrowth assay (OD600, start-growth-time) on stationary-phase P. aeruginosa; type: cell-based, Pseudomonas aeruginosa; conditions: P. aeruginosa; for Regrowth, OD600 at 6h or 8h after dilution into drug-free medium: average; for EC50: Pseudomonas aeruginosa, DSM1117, regrowth delay of non-growing bacteria, 1:4 CA-MHB pH 7.4, 24 h treatment, OD600 8 h after dilution, read-out: EC50
How it was run: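 Start-growth-time was taken as the point where OD600, recorded every 20 min at 37 °C over about 20 h of regrowth, passed 0.12. Before that, non-growing cultures in HEPES-buffered 1:4 CA-MHB (pH 7.4) were exposed for 24 h, with compounds at 20 μM in preliminary runs.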

[3] = tested on: non-growing S. aureus DSM2569; experiment: Dose-dependent killing analysis (CFU spot-plating) of stationary-phase S. aureus; type: cell-based, Staphylococcus aureus; conditions: for log10(CFU/ml) after treatment / killing, average Δlog10(CFU/ml) / log10(CFU/ml) of treated nongrowing bacteria (single replicates): S. aureus; for log10(CFU/ml) after treatment: individual replicates; for log10(CFU/ml) of treated nongrowing bacteria (single replicates): before treatment 9,097
How it was run: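 Survival was scored as CFU after overnight growth at 37 °C on LB agar, using spots from 10-fold PBS dilutions of treated cultures. Non-growing S. aureus DSM2569 had been exposed to compound for 24 h in 1:4 CA-MHB, pH 7.4. Three biological replicates were run.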

With `CCCCCCCCN=c1ccn(CCCCCCCCCCn2ccc(=NCCCCCCCC)cc2)cc1` [Octenidine] the “log10(CFU/ml) after treatment” value (non-growing UPEC CFT073; E. coli in 1:4 CA-MHB (pH 7.4), concentration 0.25) was 9.255 log10(CFU/ml) and 9.041 log10(CFU/ml) and 8.954 log10(CFU/ml), the “log10(CFU/ml) after treatment” value (non-growing UPEC CFT073; E. coli in 1:4 CA-MHB (pH 7.4), concentration 0.5) was 9.041 log10(CFU/ml) and 9.176 log10(CFU/ml) and 9.301 log10(CFU/ml) and the “log10(CFU/ml) after treatment” value (non-growing UPEC CFT073; E. coli in 1:4 CA-MHB (pH 7.4), concentration 1) was 9.146 log10(CFU/ml) and 9.204 log10(CFU/ml) and 9.041 log10(CFU/ml). For the same compound, the “log10(CFU/ml) after treatment” value (non-growing UPEC CFT073; E. coli in 1:4 CA-MHB (pH 7.4), concentration 2.5) was 9.000 log10(CFU/ml) and 8.903 log10(CFU/ml) and 8.778 log10(CFU/ml), the “log10(CFU/ml) after treatment” value (non-growing UPEC CFT073; E. coli in 1:4 CA-MHB (pH 7.4), concentration 5) was 8.000 log10(CFU/ml) (2×) and 8.146 log10(CFU/ml) and the “log10(CFU/ml) after treatment” value (non-growing UPEC CFT073; E. coli in LPM (pH 5.5), concentration 0.25) was 7.301 log10(CFU/ml) and 7.568 log10(CFU/ml) and 7.886 log10(CFU/ml). The “log10(CFU/ml) after treatment” value (non-growing UPEC CFT073; E. coli in LPM (pH 5.5), concentration 0.5) was 7.580 log10(CFU/ml) and 7.447 log10(CFU/ml) and 7.881 log10(CFU/ml), the “log10(CFU/ml) after treatment” value (non-growing UPEC CFT073; E. coli in LPM (pH 5.5), concentration 1) was 7.447 log10(CFU/ml) and 7.663 log10(CFU/ml) and 7.778 log10(CFU/ml) and the “log10(CFU/ml) after treatment” value (non-growing UPEC CFT073; E. coli in LPM (pH 5.5), concentration 2.5) was 7.491 log10(CFU/ml) and 7.633 log10(CFU/ml) and 7.875 log10(CFU/ml). For the same compound, the “log10(CFU/ml) after treatment” value (non-growing UPEC CFT073; E. coli in LPM (pH 5.5), concentration 5) was 7.380 log10(CFU/ml) and 7.663 log10(CFU/ml) and 7.863 log10(CFU/ml), the “Regrowth, OD600 at 6h or 8h after dilution into drug-free medium” value ([1]; concentration 0.1) was 0.879 and the “Regrowth, OD600 at 6h or 8h after dilution into drug-free medium” value ([1]; concentration 0.5) was 0.554. For the same compound, the “Regrowth, OD600 at 6h or 8h after dilution into drug-free medium” value ([1]; concentration 2.5) was 0.478, the “Regrowth, OD600 at 6h or 8h after dilution into drug-free medium (average)” value ([1]; drug concentration 10) was 0.086 and the EC50 [1] was 3.3 µM. For the same compound, the “Regrowth, OD600 at 6h or 8h after dilution into drug-free medium” value ([2]; concentration 0.1) was 0.666, the “Regrowth, OD600 at 6h or 8h after dilution into drug-free medium” value ([2]; concentration 0.5) was 0.602 and the “Regrowth, OD600 at 6h or 8h after dilution into drug-free medium” value ([2]; concentration 2.5) was 0.656. The “Regrowth, OD600 at 6h or 8h after dilution into drug-free medium (average)” value ([2]; drug concentration 10) was 0.533, the EC50 [2] was 9.99 µM and the “log10(CFU/ml) after treatment” value ([3]; concentration 0.1) was 8.505 log10(CFU/ml) and 8.653 log10(CFU/ml) and 8.820 log10(CFU/ml). For the same compound, the “log10(CFU/ml) after treatment” value ([3]; concentration 0.5) was 8.114 log10(CFU/ml) and 8.380 log10(CFU/ml) and 8.643 log10(CFU/ml), the “log10(CFU/ml) after treatment” value ([3]; concentration 2.5) was 6.322 log10(CFU/ml) and 7.690 log10(CFU/ml) and 8.255 log10(CFU/ml) and the “reduction of non-growing S. aureus” value ([3]; at 10 µM, 24 h treatment) was “below the limit of detection”.
With `NC1CCN(c2nc3c(cc2F)c(=O)c(C(=O)O)cn3-c2ccc(F)cc2F)C1` (stereo not shown) [Tosufloxacin] the “killing, average Δlog10(CFU/ml)” value (non-growing UPEC CFT073; E. coli in 1:4 CA-MHB (pH 7.4), drug concentration 0.25) was 0.576 log10(CFU/ml), the “log10(CFU/ml) of treated nongrowing bacteria (single replicates)” value (from here on “log10(CFU/ml) … (single replicates)”) (non-growing UPEC CFT073; E. coli in 1:4 CA-MHB (pH 7.4), drug concentration 0.25, before treatment 8.977) was 8.477 log10(CFU/ml) and 8.279 log10(CFU/ml) and 8.447 log10(CFU/ml) and the “killing, average Δlog10(CFU/ml)” value (non-growing UPEC CFT073; E. coli in 1:4 CA-MHB (pH 7.4), drug concentration 0.5) was 0.736 log10(CFU/ml). The “log10(CFU/ml) … (single replicates)” value (non-growing UPEC CFT073; E. coli in 1:4 CA-MHB (pH 7.4), drug concentration 0.5, before treatment 8.977) was 8.602 log10(CFU/ml) and 8.041 log10(CFU/ml) and 8.079 log10(CFU/ml), the “killing, average Δlog10(CFU/ml)” value (non-growing UPEC CFT073; E. coli in 1:4 CA-MHB (pH 7.4), drug concentration 1) was 1.185 log10(CFU/ml) and the “log10(CFU/ml) … (single replicates)” value (non-growing UPEC CFT073; E. coli in 1:4 CA-MHB (pH 7.4), drug concentration 1, before treatment 8.977) was 8.301 log10(CFU/ml) and 7.845 log10(CFU/ml) and 7.230 log10(CFU/ml). The “killing, average Δlog10(CFU/ml)” value (non-growing UPEC CFT073; E. coli in 1:4 CA-MHB (pH 7.4), drug concentration 2.5) was 2.064 log10(CFU/ml), the “log10(CFU/ml) … (single replicates)” value (non-growing UPEC CFT073; E. coli in 1:4 CA-MHB (pH 7.4), drug concentration 2.5, before treatment 8.977) was 7.041 log10(CFU/ml) and 6.699 log10(CFU/ml) and 7.000 log10(CFU/ml) and the “killing, average Δlog10(CFU/ml)” value (non-growing UPEC CFT073; E. coli in 1:4 CA-MHB (pH 7.4), drug concentration 5) was 2.460 log10(CFU/ml). For the same compound, the “log10(CFU/ml) … (single replicates)” value (non-growing UPEC CFT073; E. coli in 1:4 CA-MHB (pH 7.4), drug concentration 5, before treatment 8.977) was 6.845 log10(CFU/ml) and 6.230 log10(CFU/ml) and 6.477 log10(CFU/ml), the “killing, average Δlog10(CFU/ml)” value (non-growing UPEC CFT073; E. coli in 1:4 CA-MHB (pH 7.4), drug concentration 10) was 2.856 log10(CFU/ml) and the “log10(CFU/ml) … (single replicates)” value (non-growing UPEC CFT073; E. coli in 1:4 CA-MHB (pH 7.4), drug concentration 10, before treatment 8.977) was 6.778 log10(CFU/ml) and 5.380 log10(CFU/ml) and 6.204 log10(CFU/ml). For the same compound, the “killing, average Δlog10(CFU/ml)” value (non-growing UPEC CFT073; E. coli in LPM (pH 5.5), drug concentration 0.25) was -0.097 log10(CFU/ml), the “log10(CFU/ml) … (single replicates)” value (non-growing UPEC CFT073; E. coli in LPM (pH 5.5), drug concentration 0.25, before treatment 7.350) was 7.342 log10(CFU/ml) and 7.000 log10(CFU/ml) and 8.000 log10(CFU/ml) and the “killing, average Δlog10(CFU/ml)” value (non-growing UPEC CFT073; E. coli in LPM (pH 5.5), drug concentration 0.5) was 0.356 log10(CFU/ml). For the same compound, the “log10(CFU/ml) … (single replicates)” value (non-growing UPEC CFT073; E. coli in LPM (pH 5.5), drug concentration 0.5, before treatment 7.350) was 7.079 log10(CFU/ml) and 6.000 log10(CFU/ml) and 7.903 log10(CFU/ml), the “killing, average Δlog10(CFU/ml)” value (non-growing UPEC CFT073; E. coli in LPM (pH 5.5), drug concentration 1) was 0.195 log10(CFU/ml) and the “log10(CFU/ml) … (single replicates)” value (non-growing UPEC CFT073; E. coli in LPM (pH 5.5), drug concentration 1, before treatment 7.350) was 7.279 log10(CFU/ml) and 6.342 log10(CFU/ml) and 7.845 log10(CFU/ml). For the same compound, the “killing, average Δlog10(CFU/ml)” value (non-growing UPEC CFT073; E. coli in LPM (pH 5.5), drug concentration 2.5) was 0.183 log10(CFU/ml), the “log10(CFU/ml) … (single replicates)” value (non-growing UPEC CFT073; E. coli in LPM (pH 5.5), drug concentration 2.5, before treatment 7.350) was 7.079 log10(CFU/ml) and 6.519 log10(CFU/ml) and 7.903 log10(CFU/ml) and the “killing, average Δlog10(CFU/ml)” value (non-growing UPEC CFT073; E. coli in LPM (pH 5.5), drug concentration 5) was 0.243 log10(CFU/ml). For the same compound, the “log10(CFU/ml) … (single replicates)” value (non-growing UPEC CFT073; E. coli in LPM (pH 5.5), drug concentration 5, before treatment 7.350) was 7.146 log10(CFU/ml) and 6.699 log10(CFU/ml) and 7.477 log10(CFU/ml), the “killing, average Δlog10(CFU/ml)” value (non-growing UPEC CFT073; E. coli in LPM (pH 5.5), drug concentration 10) was 0.735 log10(CFU/ml) and the “log10(CFU/ml) … (single replicates)” value (non-growing UPEC CFT073; E. coli in LPM (pH 5.5), drug concentration 10, before treatment 7.350) was 6.591 log10(CFU/ml) and 6.255 log10(CFU/ml) and 7.000 log10(CFU/ml). For the same compound, the EC50 [1] was 0.328 µM, the EC50 [2] was 0.237 µM and the “killing, average Δlog10(CFU/ml)” value ([3]; drug concentration 0.1) was 0.037 log10(CFU/ml). The “log10(CFU/ml) … (single replicates)” value ([3]; drug concentration 0.1) was 8.845 log10(CFU/ml) and 9.301 log10(CFU/ml) and 9.033 log10(CFU/ml), the “killing, average Δlog10(CFU/ml)” value ([3]; drug concentration 0.5) was 0.330 log10(CFU/ml) and the “log10(CFU/ml) … (single replicates)” value ([3]; drug concentration 0.5) was 8.690 log10(CFU/ml) and 8.869 log10(CFU/ml) and 8.740 log10(CFU/ml). For the same compound, the “killing, average Δlog10(CFU/ml)” value ([3]; drug concentration 2.5) was 0.522 log10(CFU/ml), the “log10(CFU/ml) … (single replicates)” value ([3]; drug concentration 2.5) was 8.580 log10(CFU/ml) and 8.898 log10(CFU/ml) and 8.248 log10(CFU/ml) and the “killing, average Δlog10(CFU/ml)” value ([3]; drug concentration 10) was 0.688 log10(CFU/ml). The “log10(CFU/ml) … (single replicates)” value ([3]; drug concentration 10) was 8.531 log10(CFU/ml) and 8.663 log10(CFU/ml) and 8.033 log10(CFU/ml).
